Experiments:
Formosan termites = assay: Foraging box bait matrix bioassay, NHA sodium salt (Example 1); format: in vivo, Coptotermes formosanus
Method: For bait matrices with a final concentrations of NHA sodium salt of either 250 ppm or 500 ppm, the following procedure was used. A total of 25 mg or 50 mg, respectively of the NHA sodium salt was weighed using a Mettler balance. The NHA sodium salt complex was placed into a 50 ml sterile screw cap conical tube (#62.547.004; Sarstedt, Newton, N.C.) and dissolved with 40 ml nutritive solution described in Example 2 of U.S. patent application Ser. No. 09/294,499 filed Apr. 20, 1999, hereby incorporated by reference. Under a laminar flow hood, this product was mixed with 27 ml more of sterile nutritional supplement in a 250 ml sterile glass bottle (prepared as reported by M. G. Rojas and J. A. Morales-Ramos, April 2001, “Bait matrix for delivery of chitin synthesis inhibitors to the Formosan subterranean termite [Isoptera: Rhinotermitidae],” J. Econ. Entomol. 94(2) :506-510) hereby incorporated by reference. The bottle was tightly closed with a screw cap and manually shaken for 2 minutes. The mixture was added to 33 g of sterile cellulose as reported by Rojas and Morales-Ramos (2001) supra. The mixture was manually homogenized using a stainless steel spatula. To encase the bait matrix, tubes made of fibrous casing material (#124B; L.E.M. Products, Inc., Miamitown, Ohio) were cut into 150 mm long portions as reported by Rojas and Morales-Ramos (2001) supra. Fifty grams of bait matrix containing NHA sodium salt was compacted into one end of the inlet tube, and the open end and of the inlet tube was closed with a rubber band. The bait casing was placed inside of the foraging box adjacent to a 10 g piece of pine wood, taking care that it was partially covered with sand. Control bait matrix was prepared minus NHA, and presented in the same way as the treatment matrix to Formosan termites taken from three different colonies, with two boxes per locality totaling six boxes of 2500 termites per treatment. (Rojas and Morales-Ramos [2001] supra). All the experimental boxes were maintained under dark conditions at 27±1° C., and 90±2% relative humidity. Observations were done every 72 hours until all the termites died. The time to reach 100% mortality was measured and recorded. Mean comparisons among treatments and control were conducted.

Reticulitermes spp. = assay: Field evaluation of bait matrix-NHA in underground Exterra bait stations, Past Christian, Mississippi; format: in vivo, Reticulitermes flavipes
Method: Underground Exterra bait stations (Ensystex, Fayetteville, N.C.) were placed according to manufacturer directions around 20 houses in a heavily Reticulitermes spp. infested neighborhood surrounded by mainly pine forest in Past Christian, Miss. The stations were placed, approximately 20 feet apart and 5 feet away from the outside wall of the house. Monthly inspections were conducted to determine termite activity. Once termites were found in the station, 150 g of the ARS bait matrix (see Example 2) containing 250 ppm NHA was placed in the station for the first year of the experiment. The dose was increased in the second year to 500 ppm because of the constant movement of termites from the forest area to the stations. The bait matrix-NHA was prepared as above and exposed to the termites contained in the Exterra bait station, consecutively monthly inspections were conducted and bait matrix-NHA was added as required. Data on bait consumption, temperature of the soil and time to kill the colony was recorded. Reticulitermes flavipes were very abundant in the study site. The distribution of the infestation was in patches. For the typical infested house, termites were found in 3 of 6 stations. For this type of environmental setting, 600 g of bait matrix which is equivalent to 240 mg of NHA was required to kill the colony. It took about 9 months (from September-May) for the bait matrix to show its effectiveness which was evaluated by the presence of dead termites on the surface of the bait matrix container and interceptors.

[1] = date 01/29 (17th of 18, second winter)
[2] = date 02/26 (18th of 18, second winter)
[3] = typical infested house, termites in 3 of 6 stations

In the case of `O=C1c2cccc3cccc(c23)C(=O)N1O` [NHA, N-hydroxynaphthalimide], the “acceptability of the bait” value (Formosan termites; NHA >500 ppm) is reported as “reduced”, the “time some termite colonies required to start feeding on the bait” value (Formosan termites; NHA >500 ppm) is reported as “more than 8 hours” and the “time to mortality of a 2,500-worker colony” value (Formosan termites; depending on the health and age of the colony) is reported as “about 3 weeks”. For the same compound, the “NHA concentration at which consumption is almost non existent” value (Formosan termites; in vivo) was “above 20,000 ppm”, the “NHA concentration at which the bait becomes unpalatable” value (Formosan termites; in vivo) was “above 10,000 ppm” and the “time for the bait matrix to show its effectiveness (dead termites on bait container and interceptors)” value (Reticulitermes spp.; September-May) was “about 9 months”. The “Active Stations Number” value (Reticulitermes spp.; date 01/29 (5th of 18)) was 6, the “Active Stations Percentage” value (Reticulitermes spp.; date 01/29 (5th of 18)) was 24.0% and the “Bait (Cum. weight in g) Consumed” value (Reticulitermes spp.; date 01/29 (5th of 18)) was 1,500 g. For the same compound, the “Active Stations Number” value (Reticulitermes spp.; [1]) was 11, the “Active Stations Percentage” value (Reticulitermes spp.; [1]) was 24.4% and the “Bait (Cum. weight in g) Consumed” value (Reticulitermes spp.; [1]) was 11,850 g. The “Active Stations Number” value (Reticulitermes spp.; date 02/26 (6th of 18)) was 12, the “Active Stations Percentage” value (Reticulitermes spp.; date 02/26 (6th of 18)) was 50.0% and the “Bait (Cum. weight in g) Consumed” value (Reticulitermes spp.; date 02/26 (6th of 18)) was 1,500 g. The “Active Stations Number” value (Reticulitermes spp.; [2]) was 15, the “Active Stations Percentage” value (Reticulitermes spp.; [2]) was 33.3% and the “Bait (Cum. weight in g) Consumed” value (Reticulitermes spp.; [2]) was 12,600 g. The “Active Stations Number” value (Reticulitermes spp.; date 03/27 (7th of 18)) was 13, the “Active Stations Percentage” value (Reticulitermes spp.; date 03/27 (7th of 18)) was 56.5% and the “Bait (Cum. weight in g) Consumed” value (Reticulitermes spp.; date 03/27 (7th of 18)) was 1,500 g. The “Active Stations Number” value (Reticulitermes spp.; date 05/01 (8th of 18)) was 16, the “Active Stations Percentage” value (Reticulitermes spp.; date 05/01 (8th of 18)) was 55.2% and the “Bait (Cum. weight in g) Consumed” value (Reticulitermes spp.; date 05/01 (8th of 18)) was 3,150 g. For the same compound, the “Active Stations Number” value (Reticulitermes spp.; date 05/29 (9th of 18)) was 11, the “Active Stations Percentage” value (Reticulitermes spp.; date 05/29 (9th of 18)) was 36.7% and the “Bait (Cum. weight in g) Consumed” value (Reticulitermes spp.; date 05/29 (9th of 18)) was 3,750 g. For the same compound, the “Active Stations Number” value (Reticulitermes spp.; date 06/26 (10th of 18)) was 16, the “Active Stations Percentage” value (Reticulitermes spp.; date 06/26 (10th of 18)) was 50.0% and the “Bait (Cum. weight in g) Consumed” value (Reticulitermes spp.; date 06/26 (10th of 18)) was 4,800 g. The “Active Stations Number” value (Reticulitermes spp.; date 07/31 (11th of 18)) was 12, the “Active Stations Percentage” value (Reticulitermes spp.; date 07/31 (11th of 18)) was 33.3% and the “Bait (Cum. weight in g) Consumed” value (Reticulitermes spp.; date 07/31 (11th of 18)) was 6,000 g. For the same compound, the “Active Stations Number” value (Reticulitermes spp.; date 08/28 (12th of 18)) was 17, the “Active Stations Percentage” value (Reticulitermes spp.; date 08/28 (12th of 18)) was 47.2% and the “Bait (Cum. weight in g) Consumed” value (Reticulitermes spp.; date 08/28 (12th of 18)) was 7,200 g. The “Active Stations Number” value (Reticulitermes spp.; date 09/25 (13th of 18)) was 21, the “Active Stations Percentage” value (Reticulitermes spp.; date 09/25 (13th of 18)) was 52.5% and the “Bait (Cum. weight in g) Consumed” value (Reticulitermes spp.; date 09/25 (13th of 18)) was 7,950 g. For the same compound, the “Active Stations Number” value (Reticulitermes spp.; date 09/26 (1st of 18), NHA 250 ppm first year, 500 ppm second year) was 22, the “Bait (Cum. weight in g) Consumed” value (Reticulitermes spp.; date 09/26 (1st of 18), from fully consumed bait bags) was 0.0 g and the “Active Stations Percentage” value (Reticulitermes spp.; date 09/26 (1st of 18), of cumulative stations ever active) was 95.7%. For the same compound, the “Active Stations Number” value (Reticulitermes spp.; date 10/27 (2nd of 18)) was 10, the “Active Stations Percentage” value (Reticulitermes spp.; date 10/27 (2nd of 18)) was 43.5% and the “Bait (Cum. weight in g) Consumed” value (Reticulitermes spp.; date 10/27 (2nd of 18)) was 600 g. The “Active Stations Number” value (Reticulitermes spp.; date 11/02 (14th of 18)) was 18, the “Active Stations Percentage” value (Reticulitermes spp.; date 11/02 (14th of 18)) was 42.9% and the “Bait (Cum. weight in g) Consumed” value (Reticulitermes spp.; date 11/02 (14th of 18)) was 10,800 g. For the same compound, the “Active Stations Number” value (Reticulitermes spp.; date 11/20 (3rd of 18)) was 10, the “Active Stations Percentage” value (Reticulitermes spp.; date 11/20 (3rd of 18)) was 41.7% and the “Bait (Cum. weight in g) Consumed” value (Reticulitermes spp.; date 11/20 (3rd of 18)) was 1,200 g. For the same compound, the “Active Stations Number” value (Reticulitermes spp.; date 11/27 (15th of 18)) was 13, the “Active Stations Percentage” value (Reticulitermes spp.; date 11/27 (15th of 18)) was 28.9% and the “Bait (Cum. weight in g) Consumed” value (Reticulitermes spp.; date 11/27 (15th of 18)) was 11,250 g. The “Active Stations Number” value (Reticulitermes spp.; date 12/18 (4th of 18)) was 8, the “Active Stations Percentage” value (Reticulitermes spp.; date 12/18 (4th of 18)) was 33.3% and the “Bait (Cum. weight in g) Consumed” value (Reticulitermes spp.; date 12/18 (4th of 18)) was 1,500 g. The “Active Stations Number” value (Reticulitermes spp.; date 12/29 (16th of 18)) was 13, the “Active Stations Percentage” value (Reticulitermes spp.; date 12/29 (16th of 18)) was 28.9% and the “Bait (Cum. weight in g) Consumed” value (Reticulitermes spp.; date 12/29 (16th of 18)) was 11,850 g. The “NHA required to kill the colony (equivalent of bait matrix)” value (Reticulitermes spp.; [3]) was 240 mg and the “bait matrix required to kill the colony” value (Reticulitermes spp.; [3]) was 600 g.

Source: patent USRE44543E1, “Naphthalenic compounds as termite bait toxicants” (priority 2002, dated 2013)
